Test results taken from the supplement of paper PMC10307832.

Legend:
Experiment in all cases: relative viability (nuclei count vs DMSO), 5 days (fraction); higher = more cells survive
[1] = compound: C1/C(=C\C2=CC=CS2)/C(=O)/C(=C/C3=CC=CS3)/C1 + CC(=O)c1c(C)c2cnc(Nc3ccc(N4CCNCC4)cn3)nc2n(C2CCCC2)c1=O [Palbociclib] (partner 0.5 µM)
Procedure, shortened: (§1)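 Relative viability divides the nuclei count in treated wells by that in vehicle wells. Lung cancer cell lines were seeded in 1536-well plates, dosed by pin tool the next day, and fixed and stained after 5 days in one step with final 0.05% Triton X-100, 1% formaldehyde and 1 ug/ml Hoechst. Dosing was a single drug or a fixed anchor-drug dose plus five library-drug doses (not always all listed) in √10 steps, and values are medians of duplicate plates imaged at 4×.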

[2] = compound: C1/C(=C\C2=CC=CS2)/C(=O)/C(=C/C3=CC=CS3)/C1 + N=C(N)NC(=N)NCCc1ccccc1 [Phenformin] (partner 250 µM)
Procedure, shortened: as §1

TPCA-1 + Crizotinib = compound: C1=CC(=CC=C1C2=CC(=C(S2)NC(=O)N)C(=O)N)F [TPCA-1] + C[C@@H](Oc1cc(-c2cnn(C3CCNCC3)c2)cnc1N)c1c(Cl)ccc(F)c1Cl [Crizotinib] (partner 1 µM)
Procedure, shortened: as §1

[3] = compound: C[C@]12O[C@H](C[C@]1(O)CO)n1c3ccccc3c3c4c(c5c6ccccc6n2c5c31)CNC4=O [Lestaurtinib] + CC(C)C[C@H](NC(=O)[C@H](Cc1ccccc1)NC(=O)c1cnccn1)B(O)O [Bortezomib] (partner 0.002 µM)
Procedure, shortened: as §1

Cell Line	relative viability ([1]; first compound 0.2 µM)	relative viability ([1]; first compound 0.6325 µM)	relative viability ([1]; first compound 2 µM)	relative viability ([1]; first compound 6.325 µM)	relative viability ([1]; first compound 20 µM)	relative viability ([2]; first compound 0.2 µM)	relative viability ([2]; first compound 0.6325 µM)	relative viability ([2]; first compound 2 µM)	relative viability ([2]; first compound 6.325 µM)	relative viability ([2]; first compound 20 µM)	relative viability (TPCA-1 + Crizotinib; first compound 0.04 µM)	relative viability (TPCA-1 + Crizotinib; first compound 0.1265 µM)	relative viability (TPCA-1 + Crizotinib; first compound 0.4 µM)	relative viability (TPCA-1 + Crizotinib; first compound 1.265 µM)	relative viability (TPCA-1 + Crizotinib; first compound 4 µM)	relative viability ([3]; first compound 0.005 µM)	relative viability ([3]; first compound 0.01581 µM)	relative viability ([3]; first compound 0.05 µM)	relative viability ([3]; first compound 0.1581 µM)	relative viability ([3]; first compound 0.5 µM)
NCI-H441	0.242	0.217	0.234	0.197	0.25	0.826	1.01	0.955	0.77	0.772	0.894	0.646	0.618	0.452	0.379	0.4	0.618	0.603	0.295	0.367
NCI-H647	0.441	0.442	0.378	0.398	0.405	0.55	0.505	0.579	0.474	0.485	1.24	1.08	1.13	0.882	0.215	0.994	0.828	0.276	0.244	0.133
NCI-H1915	0.507	0.55	0.515	0.459	0.5	0.365	0.378	0.362	0.205	0.37	0.906	0.884	0.915	0.857	0.72	0.971	1.06	0.6	0.949	0.284
NCI-H1734	0.386	0.336	0.346	0.225	0.359	0.415	0.403	0.443	0.363	0.412	0.706	0.584	0.704	0.642	0.575	1.08	0.904	0.681	0.456	0.325
NCI-H1993	0.643	0.639	0.595	0.562	0.646	0.514	0.518	0.494	0.42	0.517	0.868	–	1.02	0.851	0.849	1.11	1	1.45	0.788	0.594
HCC-78	0.486	0.457	0.534	–	0.451	0.654	0.78	0.945	0.603	0.695	0.362	0.341	0.345	0.338	0.307	0.47	0.488	0.425	0.283	0.29
NCI-H2405	0.555	0.509	0.575	0.52	0.504	0.404	0.386	0.441	0.413	0.402	0.908	0.773	0.797	0.547	0.905	1	1.01	0.883	0.977	0.734
HOP-62	0.486	0.499	0.465	0.41	0.473	0.686	0.714	0.531	0.664	0.672	0.974	0.865	0.974	1.05	0.641	0.863	0.707	0.913	1.42	0.696
